Measured values published in patent US20250051327A1, “MALT-1 MODULATORS” (EXSCIENTIA AI LIMITED, priority 2020, published 2025).

Legend:
[1] = target: Recombinant human MALT-1 (amino acids 340-824) (Homo sapiens (Human), UniProt Q9UDY8); test: MALT-1 inhibition assay (fluorogenic substrate Ac-LRSR-Rh110-DP); format: biochemical; conditions: recombinant human MALT-1, substrate Ac-LRSR-Rh110-DP
In short: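 MALT-1 at 3 nM final was reacted with 10 μM Ac-LRSR-Rh110-DP, with substrate addition starting the reaction. Incubation ran 60 minutes at 25° C in the dark. Percent inhibition from fluorescence across doses was fitted to a 4-parameter logistic to give IC50.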

[2] = test system: IL-2 secretion by human effector memory T cells (TEM); test: Effector memory T cells IL-2 release assay; format: cell-based; conditions: T-cell; human CD4+ effector memory T cells, CD3/CD28 bead stimulation, 24 h; read-out: CD4TC IL2 IC50
In short: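 Human CD4+ effector memory T cells from healthy-donor buffy coats were stimulated with anti-CD3/CD28 Dynabeads and exposed to 10 semi-log compound doses (0.1% DMSO) for 24 h at 37 °C. Supernatant IL-2 was measured by HTRF, and IC50 came from a 4-parameter logistic fit to maximal IL-2. Viability was checked by flow cytometry.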

Recombinant human MALT-1 (amino acids 340-824), sequence (Q9UDY8 340-824): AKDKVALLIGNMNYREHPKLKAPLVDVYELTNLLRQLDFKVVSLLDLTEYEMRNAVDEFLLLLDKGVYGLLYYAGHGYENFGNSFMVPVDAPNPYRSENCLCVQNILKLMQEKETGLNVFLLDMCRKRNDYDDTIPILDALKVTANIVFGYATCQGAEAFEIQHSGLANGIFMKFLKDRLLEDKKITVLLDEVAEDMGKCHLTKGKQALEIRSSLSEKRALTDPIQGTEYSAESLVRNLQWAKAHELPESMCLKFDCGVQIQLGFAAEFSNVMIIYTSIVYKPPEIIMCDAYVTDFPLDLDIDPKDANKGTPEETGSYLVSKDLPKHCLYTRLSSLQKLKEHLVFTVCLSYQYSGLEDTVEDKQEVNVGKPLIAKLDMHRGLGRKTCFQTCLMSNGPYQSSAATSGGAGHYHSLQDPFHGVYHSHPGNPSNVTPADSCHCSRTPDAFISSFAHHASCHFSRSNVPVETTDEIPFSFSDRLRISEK

IC50 [1] [nM]	IC50 [2] [nM]	SMILES
168	255	CN(C(=O)N1CCOCC1)[C@@H](c1ccc(N2CCCc3c2cnc2cc(Cl)nn32)cc1)C(F)(F)F [CPD0073084, N-[(1S)-1-(4-{4-chloro-2,3,7,10-tetraazatricyclo[7.4.0.0^2,6]trideca-1(9),3,5,7-tetraen-10-yl}phenyl)-2,2,2-trifluoroethyl]-N-methylmorpholine-4-carboxamide]
78	103	CN(C(=O)C12CN(C1)S(=O)(=O)C2)[C@@H](c1ccc(N2CCCc3c2cnc2cc(Cl)nn32)cc1)C(F)(F)F [CPD0073087, N-[(1S)-1-(4-{4-chloro-2,3,7,10-tetraazatricyclo[7.4.0.0^2,6]trideca-1(9),3,5,7-tetraen-10-yl}phenyl)-2,2,2-trifluoroethyl]-N-methyl-2,2-dioxo-2λ^6-thia-1-azabicyclo[2.1.1]hexane-4-carboxamide]
91	142	CN(C(=O)CC1CCS(=O)(=O)CC1)[C@@H](c1ccc(N2CCCc3c2cnc2cc(Cl)nn32)cc1)C(F)(F)F [CPD0073088]
46	79	CC(=O)N1CCC(C(=O)N(C)[C@@H](c2ccc(N3CCCc4c3cnc3cc(Cl)nn43)cc2)C(F)(F)F)CC1 [CPD0073089, 1-acetyl-N-[(1S)-1-(4-{4-chloro-2,3,7,10-tetraazatricyclo[7.4.0.0^2,6]trideca-1(9),3,5,7-tetraen-10-yl}phenyl)-2,2,2-trifluoroethyl]-N-methylpiperidine-4-carboxamide]

Further lines, the molecule ahead of its results:

SMILES	IC50 [1] [nM]	IC50 [2] [nM]
CN(C(=O)C1COC1)[C@@H](c1ccc(N2CCCc3c2cnc2cc(Cl)nn32)cc1)C(F)(F)F [CPD0073083, N-[(1S)-1-(4-{4-chloro-2,3,7,10-tetraazatricyclo[7.4.0.0^2,6]trideca-1(9),3,5,7-tetraen-10-yl}phenyl)-2,2,2-trifluoroethyl]-N-methyloxetane-3-carboxamide]	90	146
CN(C(=O)CN1CCCS1(=O)=O)[C@@H](c1ccc(N2CCCc3c2cnc2cc(Cl)nn32)cc1)C(F)(F)F [CPD0073085, N-[(1S)-1-(4-{4-chloro-2,3,7,10-tetraazatricyclo[7.4.0.0^2,6]trideca-1(9),3,5,7-tetraen-10-yl}phenyl)-2,2,2-trifluoroethyl]-2-(1,1-dioxo-1λ^6,2-thiazolidin-2-yl)-N-methylacetamide]	154	286
CN(C(=O)C1CCN(C(=O)CO)CC1)[C@@H](c1ccc(N2CCCc3c2cnc2cc(Cl)nn32)cc1)C(F)(F)F [CPD0073091, N-[(1S)-1-(4-{4-chloro-2,3,7,10-tetraazatricyclo[7.4.0.0^2,6]trideca-1(9),3,5,7-tetraen-10-yl}phenyl)-2,2,2-trifluoroethyl]-1-(2-hydroxyacetyl)-N-methylpiperidine-4-carboxamide]	59	101
CN(C(=O)[C@H]1C[C@@H]([S@+](C)(=N)[O-])C1)[C@@H](c1ccc(N2CCCc3c2cnc2cc(Cl)nn32)cc1)C(F)(F)F [CPD0073224, (1S,3s)-N-[(1S)-1-(4-{4-chloro-2,3,7,10-tetraazatricyclo[7.4.0.0^2,6]trideca-1(9),3,5,7-tetraen-10-yl}phenyl)-2,2,2-trifluoroethyl]-3-[(S)-imino(methyl)oxo-λ^6-sulfanyl]-N-methylcyclobutane-1-carboxamide]	56	181
CN(C(=O)[C@H]1C[C@H]([S@@+](C)(=N)[O-])C1)[C@@H](c1ccc(N2CCCc3c2cnc2cc(Cl)nn32)cc1)C(F)(F)F [CPD0073225, (1S,3r)-N-[(1S)-1-(4-{4-chloro-2,3,7,10-tetraazatricyclo[7.4.0.0^2,6]trideca-1(9),3,5,7-tetraen-10-yl}phenyl)-2,2,2-trifluoroethyl]-3-[(S)-imino(methyl)oxo-λ^6-sulfanyl]-N-methylcyclobutane-1-carboxamide]	53	122
